One experiment deals with SB.mhdgc-1. The experiment can be described thus: AC50 for growth inhibition (viability) (log10 M); higher = less potent. The settings on record: SB.mhdgc-1 (hereditary c.1380delA CDH1 gastric cancer). The essentials:
(§1)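 Values are log half-maximal activity concentrations from four-parameter fits of DMSO-normalised viability, restricted to high-quality curve classes. Patient-derived gastric cancer cells, hereditary or sporadic, were plated at 500 cells per 1536 well in 5 μL medium and given 23 nL compound in DMSO by pintool across 11 threefold dilutions, the top final concentration being 46 μM. Viability was read by ViewLux luminescence after 48 h and a 30 min CellTiter-Glo step at room temperature.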

The subject of the next experiment is SB.msgc-1. The experiment is described as above. The settings on record: SB.msgc-1 (sporadic gastric cancer). In outline: as §1

Take `CNC(=O)c1cc(Oc2ccc(NC(=O)Nc3ccc(Cl)c(C(F)(F)F)c3)c(F)c2)ccn1` [Regorafenib]: the entries for the “AC50 for growth inhibition (log10 M)” value with SB.mhdgc-1 and in the experiment on SB.msgc-1 were -4.78 and -4.83, respectively.

For `O=C/1NC(=O)C(=C1C2=CN=C3C=CC=C[N]23)/C4=C[N]5CCN(CC6=C5C4=CC=C6)C(=O)N7CCOCC7` [GSK3 Inhibitor], the “AC50 for growth inhibition (log10 M)” value in the experiment with SB.mhdgc-1 is -5.93; in the experiment with SB.msgc-1, -4.63.

`CC(C)N(CCCNC(=O)Nc1ccc(C(C)(C)C)cc1)C[C@H]1O[C@@H](n2cc(Br)c3c(N)ncnc32)[C@H](O)[C@@H]1O` [SGC0946]: the results for the “AC50 for growth inhibition (log10 M)” value in the experiment on SB.mhdgc-1 and in the experiment with SB.msgc-1 were -4.68 and -4.53, respectively.

Regarding `COC1=CC=C2/C3=N/CCN3\C(=N/C2=C1OC)NC(=O)C4=CC=CN=C4` [PIK-90], the “AC50 for growth inhibition (log10 M)” value in the experiment with SB.mhdgc-1 is -5.33; in the experiment on SB.msgc-1, -4.98.

As to `COc1ccc2c(c1)c(CC(=O)O)c(C)n2C(=O)c1ccc(Cl)cc1` [Indomethacin], the “AC50 for growth inhibition (log10 M)” value was -6.03 in the experiment with SB.mhdgc-1 and -5.93 in the experiment with SB.msgc-1.

Consider `COC1=C2C[C@@H](C)C[C@H](OC)[C@H](O)[C@@H](C)/C=C(\C)[C@H](OC(N)=O)[C@@H](OC)/C=C/C=C(\C)C(=O)NC(=CC1=O)C2=O` [Geldanamycin], for which the “AC50 for growth inhibition (log10 M)” value was -6.58 in the experiment on SB.mhdgc-1 and -6.43 in the experiment on SB.msgc-1.

In the case of `Cc1cc(C(=O)N2CCN(c3cccc(Cl)c3)CC2)n(-c2ccccc2)n1` [XRP-44X], the “AC50 for growth inhibition (log10 M)” value in the experiment on SB.mhdgc-1 was -6.38; in the experiment with SB.msgc-1, -5.48.

`C[C@@H]1CC[C@@]2(OC1)O[C@H]3C[C@H]4[C@@H]5C/C=C6/C[C@H](CC[C@]6(C)[C@H]5CC[C@]4(C)[C@H]3[C@@H]2C)O[C@@H]7O[C@H](CO)[C@@H](O[C@@H]8O[C@@H](C)[C@H](O)[C@@H](O)[C@H]8O)[C@H](O)[C@H]7O[C@@H]9O[C@@H](C)[C@H](O)[C@@H](O)[C@H]9O` [Dioscin]: the entries for the “AC50 for growth inhibition (log10 M)” value in the experiment with SB.mhdgc-1 and with SB.msgc-1 were -5.38 and -5.23, respectively.

Turning to `C[C@H]1CN(C[C@@H](C)O1)CC(=O)NC2=CC=C3SC4=C(CC3=C2)C=CC=C4\C5=C\C(=O)\C=C(/O5)N6CCOCC6`, the results for the “AC50 for growth inhibition (log10 M)” value with SB.mhdgc-1 and with SB.msgc-1 were -5.23 and -5.28, respectively.

Turning to `NC/1=N/C(=O)N(/C=N1)[C@@H]2O[C@H](CO)[C@@H](O)[C@H]2O` [5-Azacitidine], the “AC50 for growth inhibition (log10 M)” value is -4.88 in the experiment with SB.mhdgc-1 and -5.53 with SB.msgc-1.

Turning to `CC(C)OC(=O)OCOP(=O)(CO[C@H](C)Cn1cnc2c(N)ncnc21)OCOC(=O)OC(C)C.O=C(O)C=CC(=O)O` [Tenofovir Disoproxil Fumarate], the “AC50 for growth inhibition (log10 M)” value with SB.mhdgc-1 was -4.68; in the experiment with SB.msgc-1, -4.78.

For `Cc1c(O)cccc1C(=O)N[C@@H](CSc1ccccc1)[C@H](O)CN1C[C@H]2CCCC[C@H]2C[C@H]1C(=O)NC(C)(C)C` [Viracept], the “AC50 for growth inhibition (log10 M)” value with SB.mhdgc-1 and in the experiment on SB.msgc-1 was -4.73 each time.

Turning to `CCC[C@@H](C=O)NC(=O)[C@H](CC(C)C)NC(=O)[C@H](CC(C)C)NC(=O)OCc1ccccc1` [MG-115], the “AC50 for growth inhibition (log10 M)” value is -5.98 with SB.mhdgc-1 and -5.88 in the experiment on SB.msgc-1.

Regarding `Cc1[nH]c(/C=C2\C(=O)Nc3ccccc32)c(C)c1CCC(=O)O` [Orantinib], the “AC50 for growth inhibition (log10 M)” value with SB.mhdgc-1 was -6.48; with SB.msgc-1, -5.13.

Consider `OC[C@H]1O[C@H](C[C@@H]1O)N2/C=C(C(=O)NC2=O)/C(F)(F)F` [Trifluridine], for which the “AC50 for growth inhibition (log10 M)” value is -6.48 in the experiment on SB.mhdgc-1 and -5.78 in the experiment with SB.msgc-1.

As for `CNC(=O)[C@H](CC/1=C/N=C\2/C=C\C\C=C12)NC(=O)[C@H](CC(C)C)CC(=O)NO` [GM-6001], the “AC50 for growth inhibition (log10 M)” value was -6.68 in the experiment with SB.mhdgc-1 and -5.58 in the experiment on SB.msgc-1.

For `CC(=O)O/N=C1/C(=C2\C(=O)Nc3cc(Br)ccc32)Nc2ccccc21` [6-Bromoindirubin-3'-acetoxime], the “AC50 for growth inhibition (log10 M)” value was -5.13 in the experiment with SB.mhdgc-1 and -4.93 in the experiment on SB.msgc-1.

As to `CN1CCN(c2cc(C(=O)Nc3ccc4c(c3)-c3c(c(C(N)=O)nn3-c3ccc(F)cc3)CC4)c(Cl)cn2)CC1` [PHA-408], the figures for the “AC50 for growth inhibition (log10 M)” value in the experiment on SB.mhdgc-1 and in the experiment with SB.msgc-1 were -5.88 and -5.93, respectively.

For the molecule `CCOC(=O)[C@H](CCc1ccccc1)N[C@H]1CS[C@H](c2cccs2)CN(CC(=O)O)C1=O.Cl` [Temocapril hydrochloride], the “AC50 for growth inhibition (log10 M)” value with SB.mhdgc-1 is -6.28; with SB.msgc-1, -5.88.

`C=C1C(=O)[C@@]23C(CC[C@@H]1[C@H]2O)[C@@]12CO[C@]3(O)[C@@H](O)[C@@H]1C(C)(C)CC[C@@H]2O` (stereo partly drawn) [Oridonin]: the “AC50 for growth inhibition (log10 M)” value in the experiment on SB.mhdgc-1 was -4.98; in the experiment on SB.msgc-1 it was -4.73.

As for `Cn1c2ccccc2c2c3c(c4c5ccccc5n(CCC#N)c4c21)CNC3=O` [G?-6976], the entries for the “AC50 for growth inhibition (log10 M)” value with SB.mhdgc-1 and in the experiment on SB.msgc-1 were -5.08 and -5.23, respectively.

Consider `CC(=O)SCC(Cc1ccccc1)C(=O)NCC(=O)OCc1ccccc1` (stereo not drawn) [Racecadotril], for which the “AC50 for growth inhibition (log10 M)” value in the experiment with SB.mhdgc-1 is -6.68; with SB.msgc-1 it was -6.23.

`C[S+](=O)([O-])Oc1ccc2c(NC(N)=O)c(C(=O)c3ccc(Cl)cc3Cl)oc2c1` [Lirimilast]: the “AC50 for growth inhibition (log10 M)” value was -6.08 with SB.mhdgc-1 and -5.53 in the experiment on SB.msgc-1.

With `CCN1CCN(c2ccc(Nc3cc(N(C)C(=O)Nc4c(Cl)c(OC)cc(OC)c4Cl)ncn3)cc2)CC1` [BGJ-398], the figures for the “AC50 for growth inhibition (log10 M)” value in the experiment with SB.mhdgc-1 and in the experiment with SB.msgc-1 were -4.58 and -4.73, respectively.

For `CC(C)c1onc(-c2c(Cl)cccc2Cl)c1COc1ccc(/C=C/c2cccc(C(=O)O)c2)c(Cl)c1` [GW-4064X], the “AC50 for growth inhibition (log10 M)” value was -5.33 with SB.mhdgc-1 and -4.73 in the experiment with SB.msgc-1.

For the molecule `CN(C)CCOc1ccc(/C(=C(/CCCl)c2ccccc2)c2ccccc2)cc1` [Toremifene], the “AC50 for growth inhibition (log10 M)” value with SB.mhdgc-1 and in the experiment with SB.msgc-1 was -4.63 each time.

On to `COc1ccc(-c2ccc3c(N4CCOC[C@@H]4C)nc(N4CCOC[C@@H]4C)nc3n2)cc1CO` [AZD-8055], for which the “AC50 for growth inhibition (log10 M)” value was -7.83 with SB.mhdgc-1 and -5.98 in the experiment with SB.msgc-1.

With `CCOC(=O)N1CCN(/[N+]([O-])=N/Oc2ccc([N+](=O)[O-])cc2[N+](=O)[O-])CC1`, the “AC50 for growth inhibition (log10 M)” value is -5.23 in the experiment on SB.mhdgc-1 and -4.88 in the experiment on SB.msgc-1.

Regarding `Nc1cc(C(F)(F)F)c(-c2cc(N3CCOCC3)nc(N3CCOCC3)n2)cn1` [BKM-120], the “AC50 for growth inhibition (log10 M)” value is -6.78 in the experiment on SB.mhdgc-1 and -6.18 in the experiment with SB.msgc-1.

With `CN(C)Cc1cccc(N/C(=C2\C(=O)Nc3cc(C(=O)N(C)C)ccc32)c2ccccc2)c1`, the “AC50 for growth inhibition (log10 M)” value in the experiment on SB.mhdgc-1 is -5.48; with SB.msgc-1, -5.23.

On to `CCOc1cc(C(=O)Nc2ccc(Cl)c(-c3nc4ccccc4[nH]3)c2)cc(OCC)c1OCC` [SANT-2], for which the “AC50 for growth inhibition (log10 M)” value with SB.mhdgc-1 is -5.93; in the experiment with SB.msgc-1, -5.18.

With `CN(C)c1ccc2cc(C(=O)N[C@@H](CCCNC(=N)CCl)C(=O)NCc3ccccc3)ccc2c1` [YW3-56], the “AC50 for growth inhibition (log10 M)” value in the experiment with SB.mhdgc-1 was -4.78; in the experiment with SB.msgc-1 it was -5.03.

Take `COc1cc2ncn(-c3cc(OCc4ccccc4C(F)(F)F)c(C(N)=O)s3)c2cc1OC`: the “AC50 for growth inhibition (log10 M)” value with SB.mhdgc-1 was -5.43; in the experiment on SB.msgc-1, -5.63.

Turning to `CCN(CC)CCNC(=O)c1c(C)[nH]c(/C=C2\C(=O)Nc3ccc(F)cc32)c1C` [Sunitinib malate], the “AC50 for growth inhibition (log10 M)” value in the experiment with SB.mhdgc-1 was -5.32; in the experiment with SB.msgc-1 it was -4.42.

With `FC(F)(F)c1ccc(/C=C/c2nc(COc3ccc(CCCCn4ccnn4)cc3)co2)cc1` [Mubritinib], the entries for the “AC50 for growth inhibition (log10 M)” value with SB.mhdgc-1 and in the experiment on SB.msgc-1 were -6.78 and -7.83, respectively.

Consider `COC1=C(OCCCN2CCOCC2)C=CC\3=C1/N=C(/NC(=O)C4=CN=C(N)N=C4)N5CC/N=C35` [BAY-80-6946], for which the “AC50 for growth inhibition (log10 M)” value with SB.mhdgc-1 is -6.84; in the experiment with SB.msgc-1 it was -7.44.

As for `CC(C(=O)O)c1ccc2c(c1)CC(=O)c1ccccc1S2` (stereo not drawn) [Zaltoprofen], the “AC50 for growth inhibition (log10 M)” value was -5.43 in the experiment on SB.mhdgc-1 and -5.13 with SB.msgc-1.

As for `Nc1ncnc2c1nc(Cl)n2[C@@H]1O[C@H](CO)[C@@H](O)[C@H]1O` [8-Cl-Ado], the “AC50 for growth inhibition (log10 M)” value is -4.78 in the experiment on SB.mhdgc-1 and -4.68 with SB.msgc-1.

With `O=C(NOCC1CC1)c1ccc(F)c(F)c1Nc1ccc(I)cc1Cl`, the “AC50 for growth inhibition (log10 M)” value in the experiment with SB.mhdgc-1 is -4.78; in the experiment on SB.msgc-1, -4.83.

As to `Cn1cnc2c1c(=O)[nH]c(=O)n2C` [Theobromine], the “AC50 for growth inhibition (log10 M)” value is -4.63 with SB.mhdgc-1 and -4.78 with SB.msgc-1.

With `O=C1NC(=O)[C@@H](c2cn3c4c(cccc24)CCC3)[C@@H]1c1c[nH]c2ccccc12` [Tivantinib], the figures for the “AC50 for growth inhibition (log10 M)” value with SB.mhdgc-1 and in the experiment with SB.msgc-1 were -6.48 and -6.23, respectively.

For `CCOC(=O)C/1=C(C)/NC(=S)NC1C2=CC=CC(=C2)O` (stereo not drawn) [Monastrol], the “AC50 for growth inhibition (log10 M)” value in the experiment with SB.mhdgc-1 and with SB.msgc-1 was -7.38 each time.

Take `CCN1CCN(CC1)CC(=O)NC2=CC=C(C3=C2C4=C(S3)C=CC=C4)C5=C6O\C(=C/C(=O)C6=CC=C5)N7CCOCC7`: the “AC50 for growth inhibition (log10 M)” value in the experiment with SB.mhdgc-1 is -5.73; in the experiment on SB.msgc-1, -5.68.

On to `CC(C)(C)c1cc(C=C(C#N)C#N)cc(Br)c1O` [AG-1024], for which the “AC50 for growth inhibition (log10 M)” value in the experiment on SB.mhdgc-1 was -5.03; in the experiment with SB.msgc-1 it was -5.43.

For the origin of these results see the supplement of paper PMC5412046.
